We go through 31 compounds from patent US8435980B2 (AbbVie Inc., priority 2009, dated 2013).

The target in this experiment is T1, Cdc7 (BEV coexpressed huCDC7/DBF4) (Homo sapiens, UniProt O00311).
T1 construct: made in house; host or cells: BEV (baculovirus expression vector) co-expression; insect cells are implied but no cell line is named
T1 sequence (O00311 whole entry): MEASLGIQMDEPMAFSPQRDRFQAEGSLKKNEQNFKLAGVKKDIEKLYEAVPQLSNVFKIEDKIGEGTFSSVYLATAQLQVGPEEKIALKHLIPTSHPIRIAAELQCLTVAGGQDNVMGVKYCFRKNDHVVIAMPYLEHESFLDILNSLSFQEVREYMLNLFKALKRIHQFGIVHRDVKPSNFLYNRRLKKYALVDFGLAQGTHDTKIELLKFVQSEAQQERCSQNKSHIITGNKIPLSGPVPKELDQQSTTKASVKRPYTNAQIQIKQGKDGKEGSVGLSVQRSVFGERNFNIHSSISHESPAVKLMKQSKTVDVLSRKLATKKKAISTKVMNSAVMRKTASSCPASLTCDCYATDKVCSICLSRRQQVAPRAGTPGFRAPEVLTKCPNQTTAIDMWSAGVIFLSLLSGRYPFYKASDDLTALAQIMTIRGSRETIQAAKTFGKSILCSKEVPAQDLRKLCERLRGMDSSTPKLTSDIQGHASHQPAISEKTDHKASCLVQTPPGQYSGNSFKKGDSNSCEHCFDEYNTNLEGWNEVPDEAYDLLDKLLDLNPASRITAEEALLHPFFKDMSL
T1 sequence (Q9UBU7 whole entry partner): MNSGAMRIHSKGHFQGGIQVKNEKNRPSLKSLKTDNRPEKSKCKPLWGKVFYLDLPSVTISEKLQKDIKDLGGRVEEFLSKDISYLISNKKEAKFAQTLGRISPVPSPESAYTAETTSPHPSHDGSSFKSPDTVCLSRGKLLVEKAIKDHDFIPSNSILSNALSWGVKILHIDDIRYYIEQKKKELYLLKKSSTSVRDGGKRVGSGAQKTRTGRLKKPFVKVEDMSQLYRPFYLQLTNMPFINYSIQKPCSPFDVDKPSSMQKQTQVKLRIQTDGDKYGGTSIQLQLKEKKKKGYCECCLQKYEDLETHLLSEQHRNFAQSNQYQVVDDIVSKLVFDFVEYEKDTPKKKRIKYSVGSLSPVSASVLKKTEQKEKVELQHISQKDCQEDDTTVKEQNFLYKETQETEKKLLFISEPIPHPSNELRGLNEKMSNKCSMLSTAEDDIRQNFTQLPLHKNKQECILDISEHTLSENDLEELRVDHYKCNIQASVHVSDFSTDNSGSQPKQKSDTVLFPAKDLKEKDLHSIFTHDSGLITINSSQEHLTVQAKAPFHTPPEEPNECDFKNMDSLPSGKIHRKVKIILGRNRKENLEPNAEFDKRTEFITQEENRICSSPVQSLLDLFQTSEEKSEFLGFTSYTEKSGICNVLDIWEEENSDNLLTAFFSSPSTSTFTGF
As to the kind of experiment: Cdc7 enzyme inhibition assay ([33P]ATP, biotinylated peptide substrate, FlashPlate). The class given is biochemical. As to conditions: Table 3; enzyme inhibition data (Ki). The protocol: Cdc7 (BEV coexpressed huCDC7/DBF4) is prepared internally. Cdc7 assays are conducted as follows with final concentrations as listed. […] Reactions are quenched after 1 hr by the addition of 90 μL stop buffer (50 mM EDTA, 2M NaCl). […] (Ki) for exemplary compounds.
As a reminder, the Ki is the dissociation constant of the complex between target and ligand, obtained from inhibition or displacement. A high value points to weaker binding. With `CN[C@@H](C)C(=O)NC1CCCC(Nc2cc(-c3c[nH]c4ncccc34)cc(Cl)n2)C1` (stereo partly shown) [Example 327, N-(3-{[6-chloro-4-(1H-pyrrolo[2,3-b]pyridin-3-yl)pyridin-2-yl]amino}cyclohexyl)-N~2~-methylalaninamide], the inhibition constant Ki is < 0.01 µM.
With `CN[C@@H](C(=O)N[C@H]1CCC[C@H](Nc2cc(-c3c[nH]c4ncccc34)cc(Cl)n2)C1)c1ccccc1` [Example 328, (2R)—N-[(1S,3S)-3-{[6-chloro-4-(1H-pyrrolo[2,3-b]pyridin-3-yl)pyridin-2-yl]amino}cyclohexyl]-2-(methylamino)-2-phenylethanamide] the figure was < 0.01 µM; with `CN[C@@H](C(=O)N[C@@H]1CCC[C@@H](Nc2cc(-c3c[nH]c4ncccc34)cc(Cl)n2)C1)c1ccccc1` [Example 329, (2R)—N-[(1R,3R)-3-{[6-chloro-4-(1H-pyrrolo[2,3-b]pyridin-3-yl)pyridin-2-yl]amino}cyclohexyl]-2-(methylamino)-2-phenylethanamide], < 0.01 µM.
For `O=S(=O)(N[C@@H]1CCCC[C@H]1Nc1cc(-c2c[nH]c3ncccc23)cc(Cl)n1)C1CC1` [Example 330, N-[(1R,2R)-2-{[6-chloro-4-(1H-pyrrolo[2,3-b]pyridin-3-yl)pyridin-2-yl]amino}cyclohexyl]cyclopropanesulfonamide] the value was 0.01 to 0.1 µM; for `O=S(=O)(Nc1cc(-c2c[nH]c3ncccc23)cc(Cl)n1)c1ccc(F)cc1` [Example 331, N-[6-chloro-4-(1H-pyrrolo[2,3-b]pyridin-3-yl)pyridin-2-yl]-4-fluorobenzenesulfonamide], < 0.01 µM; for `O=S(=O)(Nc1cc(-c2c[nH]c3ncccc23)cc(Cl)n1)C1CC1` [Example 332, N-[6-chloro-4-(1H-pyrrolo[2,3-b]pyridin-3-yl)pyridin-2-yl]cyclopropanesulfonamide], < 0.01 µM.
With `CCN(CC)CC(C)(C)CNc1cc(-c2c[nH]c3ncccc23)cc(Cl)n1` [Example 333, N′-[6-chloro-4-(1H-pyrrolo[2,3-b]pyridin-3-yl)pyridin-2-yl]-N,N-diethyl-2,2-dimethylpropane-1,3-diamine] the figure was < 0.01 µM; with `CCN(CC)[C@H]1CC[C@H](Nc2cc(-c3c[nH]c4ncccc34)cc(Cl)n2)CC1` [Example 334, trans-N′-[6-chloro-4-(1H-pyrrolo[2,3-b]pyridin-3-yl)pyridin-2-yl]-N,N-diethylcyclohexane-1,4-diamine], < 0.01 µM; with `O=C1CC[C@H](C(=O)N[C@H]2CC[C@H](Nc3cc(-c4c[nH]c5ncccc45)cc(Cl)n3)CC2)N1` [Example 335, N-(trans-4-{[6-chloro-4-(1H-pyrrolo[2,3-b]pyridin-3-yl)pyridin-2-yl]amino}cyclohexyl)-5-oxo-D-prolinamide], < 0.01 µM.
Turning to `O=C1CC[C@@H](C(=O)N[C@H]2CC[C@H](Nc3cc(-c4c[nH]c5ncccc45)cc(Cl)n3)CC2)N1` [Example 338, N-(trans-4-{[6-chloro-4-(1H-pyrrolo[2,3-b]pyridin-3-yl)pyridin-2-yl]amino}cyclohexyl)-5-oxo-L-prolinamide], the Ki is < 0.01 µM.
With `CN1CCCCC1C(=O)NC1CCCC(Nc2cc(-c3c[nH]c4ncccc34)cc(Cl)n2)C1` (stereo not shown) [Example 339, N-(3-{[6-chloro-4-(1H-pyrrolo[2,3-b]pyridin-3-yl)pyridin-2-yl]amino}cyclohexyl)-1-methylpiperidine-2-carboxamide] the figure was < 0.01 µM.
For `O=C(CN1CCCCCC1)NC1CCCC(Nc2cc(-c3c[nH]c4ncccc34)cc(Cl)n2)C1` (stereo not shown) [Example 340, 2-(azepan-1-yl)-N-(3-{[6-chloro-4-(1H-pyrrolo[2,3-b]pyridin-3-yl)pyridin-2-yl]amino}cyclohexyl)acetamide] the value was < 0.01 µM.
For `O=C(N[C@H]1CC[C@H](Nc2cc(-c3c[nH]c4ncccc34)cc(Cl)n2)CC1)C1CCCC1` [Example 341, N-(trans-4-{[6-chloro-4-(1H-pyrrolo[2,3-b]pyridin-3-yl)pyridin-2-yl]amino}cyclohexyl)cyclopentanecarboxamide] the value was < 0.01 µM; for `O=C(NC1CCCC(Nc2cc(-c3c[nH]c4ncccc34)cc(Cl)n2)C1)C1CCNC1` (stereo not shown) [Example 343, N-(3-{[6-chloro-4-(1H-pyrrolo[2,3-b]pyridin-3-yl)pyridin-2-yl]amino}cyclohexyl)pyrrolidine-3-carboxamide], < 0.01 µM; for `O=C(NC1CCCC(Nc2cc(-c3c[nH]c4ncccc34)cc(Cl)n2)C1)C1CCNCC1` (stereo not shown) [Example 344, N-(3-{[6-chloro-4-(1H-pyrrolo[2,3-b]pyridin-3-yl)pyridin-2-yl]amino}cyclohexyl)piperidine-4-carboxamide], < 0.01 µM.
On to `O=C(NC1CCCC(Nc2cc(-c3c[nH]c4ncccc34)cc(Cl)n2)C1)C1CCCNC1` (stereo not shown) [Example 345, N-(3-{[6-chloro-4-(1H-pyrrolo[2,3-b]pyridin-3-yl)pyridin-2-yl]amino}cyclohexyl)piperidine-3-carboxamide], for which the Ki is < 0.01 µM.
For `CN1CCC(C(=O)NC2CCCC(Nc3cc(-c4c[nH]c5ncccc45)cc(Cl)n3)C2)C1` (stereo not shown) [Example 346, N-(3-{[6-chloro-4-(1H-pyrrolo[2,3-b]pyridin-3-yl)pyridin-2-yl]amino}cyclohexyl)-1-methylpyrrolidine-3-carboxamide] the value was < 0.01 µM.
With `CN1CCC(C(=O)NC2CCCC(Nc3cc(-c4c[nH]c5ncccc45)cc(Cl)n3)C2)CC1` (stereo not shown) [Example 347, N-(3-{[6-chloro-4-(1H-pyrrolo[2,3-b]pyridin-3-yl)pyridin-2-yl]amino}cyclohexyl)-1-methylpiperidine-4-carboxamide] the figure was < 0.01 µM.
For `CN1CCCC(C(=O)NC2CCCC(Nc3cc(-c4c[nH]c5ncccc45)cc(Cl)n3)C2)C1` (stereo not shown) [Example 348, N-(3-{[6-chloro-4-(1H-pyrrolo[2,3-b]pyridin-3-yl)pyridin-2-yl]amino}cyclohexyl)-1-methylpiperidine-3-carboxamide] the value was 0.01 to 0.1 µM; for `CN(C)C1(C(=O)NC2CCCC(Nc3cc(-c4c[nH]c5ncccc45)cc(Cl)n3)C2)CCC1` (stereo not shown) [Example 349, N-(3-{[6-chloro-4-(1H-pyrrolo[2,3-b]pyridin-3-yl)pyridin-2-yl]amino}cyclohexyl)-1-(dimethylamino)cyclobutanecarboxamide], 0.01 to 0.1 µM.
For `C[C@@H](C(=O)NC1CCCC(Nc2cc(-c3c[nH]c4ncccc34)cc(Cl)n2)C1)N(C)C` (stereo partly drawn) [Example 350, N-(3-{[6-chloro-4-(1H-pyrrolo[2,3-b]pyridin-3-yl)pyridin-2-yl]amino}cyclohexyl)-N~2~,N~2~-dimethyl-L-alaninamide], the Ki is < 0.01 µM.
Consider `O=C(CNCCO)N[C@H]1CC[C@H](Nc2cc(-c3c[nH]c4ncccc34)cc(Cl)n2)CC1` [Example 352, N-(trans-4-{[6-chloro-4-(1H-pyrrolo[2,3-b]pyridin-3-yl)pyridin-2-yl]amino}cyclohexyl)-N~2~-(2-hydroxyethyl)glycinamide], for which the Ki is < 0.01 µM.
Turning to `O=C1c2ccccc2C(=O)N1CCS(=O)(=O)NC1CCCC(Nc2cc(-c3c[nH]c4ncccc34)cc(Cl)n2)C1` (stereo not shown) [Example 353, N-(3-{[6-chloro-4-(1H-pyrrolo[2,3-b]pyridin-3-yl)pyridin-2-yl]amino}cyclohexyl)-2-(1,3-dioxo-1,3-dihydro-2H-isoindol-2-yl)ethanesulfonamide], the Ki was < 0.01 µM.
With `CC(C)(C)CNCC(=O)N[C@H]1CC[C@H](Nc2cc(-c3c[nH]c4ncccc34)cc(Cl)n2)CC1` [Example 355, N-(trans-4-{[6-chloro-4-(1H-pyrrolo[2,3-b]pyridin-3-yl)pyridin-2-yl]amino}cyclohexyl)-N~2~-(2,2-dimethylpropyl)glycinamide] the figure was < 0.01 µM; with `CCN(CCO)CC(=O)N[C@H]1CC[C@H](Nc2cc(-c3c[nH]c4ncccc34)cc(Cl)n2)CC1` [Example 356, N-(trans-4-{[6-chloro-4-(1H-pyrrolo[2,3-b]pyridin-3-yl)pyridin-2-yl]amino}cyclohexyl)-N~2~-ethyl-N~2~-(2-hydroxyethyl)glycinamide], < 0.01 µM.
As for `Clc1cc(-c2c[nH]c3ncccc23)cc(N[C@H]2CC[C@H](NC3CCNCC3)CC2)n1` [Example 357, trans-N-[6-chloro-4-(1H-pyrrolo[2,3-b]pyridin-3-yl)pyridin-2-yl]-N′-(piperidin-4-yl)cyclohexane-1,4-diamine], the inhibition constant Ki is < 0.01 µM.
In the case of `O=C1c2ccccc2C(=O)N1CCS(=O)(=O)N[C@H]1CC[C@H](Nc2cc(-c3c[nH]c4ncccc34)cc(Cl)n2)CC1` [Example 358, N-(trans-4-{[6-chloro-4-(1H-pyrrolo[2,3-b]pyridin-3-yl)pyridin-2-yl]amino}cyclohexyl)-2-(1,3-dioxo-1,3-dihydro-2H-isoindol-2-yl)ethanesulfonamide], the Ki was < 0.01 µM.
With `Clc1cc(-c2c[nH]c3ncccc23)cc(NC2CCC(CC3CCC(NC4CCC4)CC3)CC2)n1` (stereo not shown) [Example 359, 6-chloro-N-(4-{[4-(cyclobutylamino)cyclohexyl]methyl}cyclohexyl)-4-(1H-pyrrolo[2,3-b]pyridin-3-yl)pyridin-2-amine] the figure was < 0.01 µM.
With `O=C(CN1CCCCC1)Nc1cc(-c2c[nH]c3ncccc23)cc(Cl)n1` [Example 360, N-[6-chloro-4-(1H-pyrrolo[2,3-b]pyridin-3-yl)pyridin-2-yl]-2-(piperidin-1-yl)acetamide] the figure was < 0.01 µM; with `Clc1cc(-c2c[nH]c3ncccc23)cc(N[C@H]2CC[C@H](NC3CCN(C4CCC4)CC3)CC2)n1` [Example 361, trans-N-[6-chloro-4-(1H-pyrrolo[2,3-b]pyridin-3-yl)pyridin-2-yl]-N′-(1-cyclobutylpiperidin-4-yl)cyclohexane-1,4-diamine], < 0.01 µM; with `CC(C)(C)OC(=O)N1CCC(C2CCC(Nc3cc(-c4c[nH]c5ncccc45)cc(Cl)n3)CC2)CC1` (stereo not shown) [Example 362, tert-butyl 4-(4-{[6-chloro-4-(1H-pyrrolo[2,3-b]pyridin-3-yl)pyridin-2-yl]amino}cyclohexyl)piperidine-1-carboxylate], 0.01 to 0.1 µM.
